# What was measured:
# rEgGPXL-4 = system: T1, rEgGPXL-4; experiment: NADPH oxidation at […] nm, thioredoxin/thioredoxin reductase coupled; type: biochemical, Euglena gracilis; settings: 6 µM yeast Trx-2 as electron donor, 0.3 µM yeast Trx reductase, 0.2 mM NADPH, 20 mM HEPES-NaOH pH 7.5; t-BOOH up to 0.04 mM
# T1 construct: gene EgGPXL-4; full-length ORF, 159 residues, no signal peptide, pCold-II 6xHis tag, E. coli BL21, TALON purified, about 18-20 kDa; plant-type GPX; cDNA 787 bp; printed Cys-64, Gln-66, Phe-67, Glu-71, Gly-100, Asn-126, Phe-127, Lys-129, Gly-136
# rEgGPXL-2 = system: T2, rEgGPXL-2; experiment: as above; type: biochemical, Euglena gracilis; settings: 6 µM yeast Trx-2 as electron donor, 0.3 µM yeast Trx reductase, 0.2 mM NADPH, 20 mM HEPES-NaOH pH 7.5; t-BOOH up to 0.04 mM
# T2 construct: gene EgGPXL-2; full-length ORF, 173 residues, no signal peptide, pCold-II 6xHis tag, E. coli BL21, TALON purified, about 18-20 kDa; animal-type GPX, Cys-45 in place of Sec; cDNA 737 bp
compound,measurement,setting,value
CC(C)(C)OO [t-BOOH],Km,rEgGPXL-4,38.5 ± 1.6 µM
same,Km,rEgGPXL-2,28.5 ± 3.1 µM

# — paper PMC11275057, “Biochemical and Functional Profiling of Thioredoxin-Dependent Cytosolic GPX-like Proteins in Euglena gracilis” (Biomolecules, 2024)
